The values that follow come from patent US10034861B2 (priority 2016, dated 2018).

What all share (type): biochemical
One test concerns the target PDE1B (Homo sapiens (Human), UniProt Q01064). Kind of test: PDE1 inhibition assay (PDE1B). The following applies: 15 nM tritium labelled cAMP, 1 hr at room temperature, SPA beads. From the text: (§1) Table 1 lists the IC50 value for inhibition of PDE1 by the compounds of the invention. […] PDE1 assays are described in the Experimental Section.
Another test deals with PDE1C (Homo sapiens (Human), UniProt Q14123). Kind of test: biochemical.
Source text: as §1

Another test deals with PDE1A (Homo sapiens (Human), UniProt P54750). Kind of test: biochemical.
Source text: as §1

Where [1] appears, read: 15 nM tritium labelled cAMP, 1 hr at room temperature, SPA beads.

Like-named read-outs stand apart in the source and are kept apart here.

Chain of PDE1B (Q01064 whole entry): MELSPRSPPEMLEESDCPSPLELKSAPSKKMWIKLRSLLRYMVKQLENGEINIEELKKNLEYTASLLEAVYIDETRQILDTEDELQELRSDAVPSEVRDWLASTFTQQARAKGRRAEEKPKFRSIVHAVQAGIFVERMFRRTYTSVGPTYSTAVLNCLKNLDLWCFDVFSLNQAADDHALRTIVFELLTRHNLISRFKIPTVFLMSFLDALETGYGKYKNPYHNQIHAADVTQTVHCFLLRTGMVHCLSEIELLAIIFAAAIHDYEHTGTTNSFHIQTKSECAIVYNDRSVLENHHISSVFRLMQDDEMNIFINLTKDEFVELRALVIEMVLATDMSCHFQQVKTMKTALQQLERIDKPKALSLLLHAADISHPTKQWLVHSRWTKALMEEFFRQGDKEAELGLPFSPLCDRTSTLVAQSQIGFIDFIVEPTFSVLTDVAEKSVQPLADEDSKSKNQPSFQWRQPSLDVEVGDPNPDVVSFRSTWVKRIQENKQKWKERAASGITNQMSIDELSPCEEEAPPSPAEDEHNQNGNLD
Chain of PDE1C (Q14123 whole entry): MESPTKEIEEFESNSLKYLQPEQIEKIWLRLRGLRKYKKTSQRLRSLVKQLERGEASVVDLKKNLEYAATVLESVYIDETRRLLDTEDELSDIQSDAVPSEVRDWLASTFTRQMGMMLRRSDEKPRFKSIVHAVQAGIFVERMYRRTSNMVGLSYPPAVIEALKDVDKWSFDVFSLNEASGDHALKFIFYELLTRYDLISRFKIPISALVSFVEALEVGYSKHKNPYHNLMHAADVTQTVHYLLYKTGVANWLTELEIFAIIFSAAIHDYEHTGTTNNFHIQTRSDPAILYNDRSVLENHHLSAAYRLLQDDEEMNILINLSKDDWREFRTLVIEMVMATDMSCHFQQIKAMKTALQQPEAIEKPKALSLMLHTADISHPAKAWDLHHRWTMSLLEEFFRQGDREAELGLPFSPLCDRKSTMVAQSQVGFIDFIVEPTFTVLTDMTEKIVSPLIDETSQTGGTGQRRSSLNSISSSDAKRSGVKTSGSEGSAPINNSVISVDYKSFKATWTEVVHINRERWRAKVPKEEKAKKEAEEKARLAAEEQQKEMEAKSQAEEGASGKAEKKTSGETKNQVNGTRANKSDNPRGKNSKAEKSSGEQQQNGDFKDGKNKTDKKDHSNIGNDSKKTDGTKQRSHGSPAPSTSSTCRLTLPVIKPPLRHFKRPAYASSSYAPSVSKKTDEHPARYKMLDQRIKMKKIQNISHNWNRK
Chain of PDE1A (P54750 whole entry): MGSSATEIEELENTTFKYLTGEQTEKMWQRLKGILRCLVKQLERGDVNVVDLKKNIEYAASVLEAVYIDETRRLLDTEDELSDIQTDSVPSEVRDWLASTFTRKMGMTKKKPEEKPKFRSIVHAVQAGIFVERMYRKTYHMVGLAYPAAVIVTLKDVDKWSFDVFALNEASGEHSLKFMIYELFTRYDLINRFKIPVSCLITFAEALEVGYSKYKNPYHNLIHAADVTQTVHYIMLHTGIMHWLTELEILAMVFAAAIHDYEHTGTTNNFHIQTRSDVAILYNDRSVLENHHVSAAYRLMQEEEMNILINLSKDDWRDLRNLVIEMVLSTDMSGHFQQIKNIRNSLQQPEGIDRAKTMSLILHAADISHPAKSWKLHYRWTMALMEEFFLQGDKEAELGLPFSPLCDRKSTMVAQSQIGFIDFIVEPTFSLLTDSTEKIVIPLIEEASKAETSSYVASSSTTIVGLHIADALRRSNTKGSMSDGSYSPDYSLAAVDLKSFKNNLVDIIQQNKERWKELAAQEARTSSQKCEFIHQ

`Cc1nn(C(C)C)c2c(NCc3cnn(C)c3)cc(N3CCC3=O)nc12` [Example 152, 1-[1-isopropyl-3-methyl-7-[(1-methylpyrazol-4-yl)methylamino]pyrazolo[4,3-b]pyridin-5-yl]azetidin-2-one]: the IC50 came out at 32 nM at PDE1B (read-out: PDE1B, IC50); 61 nM against PDE1C (setting [1]); 48 nM at PDE1A (setting [1]).

Turning to `Cc1nn(C(C)C)c2c(NCc3cnn(C)c3)cc(N3CCN(C(C)(C)C)C3=O)nc12` [Example 153, 1-tert-butyl-3-[1-isopropyl-3-methyl-7-[(1-methylpyrazol-4-yl)methylamino]pyrazolo[4,3-b]pyridin-5-yl]imidazolidin-2-one], the IC50 at PDE1B (read-out: PDE1B, IC50) turned out to be 76 nM; on PDE1C (setting [1]), 270 nM; on PDE1A (setting [1]) it was 130 nM.

`Cc1nn(C(C)C)c2c(NCc3cnn(C)c3)cc(N3CCCC3=O)nc12` [Example 154, 1-[1-isopropyl-3-methyl-7-[(1-methylpyrazol-4-yl)methylamino]pyrazolo[4,3-b]pyridin-5-yl]pyrrolidin-2-one]: the IC50 was found to be 3.6 nM on PDE1B (read-out: PDE1B, IC50); 49 nM against PDE1C (setting [1]); 26 nM on PDE1A (setting [1]).

Consider `Cc1nn(C(C)C)c2c(NCc3cnn(C)c3)cc(N3C(=O)OCC3C)nc12` (stereo not drawn) [Example 155, 3-[1-isopropyl-3-methyl-7-[(1-methylpyrazol-4-yl)methylamino]pyrazolo[4,3-b]pyridin-5-yl]-4-methyl-oxazolidin-2-one], for which the IC50 on PDE1B (read-out: PDE1B, IC50) stood at 4.9 nM; against PDE1C (setting [1]) it was 3.9 nM; on PDE1A (setting [1]), 8.2 nM.

Take `CCOc1ncccc1-c1cc(CNc2cncc(OC)c2)c2c(n1)c(C)nn2C(C)C` [Example 157, N-[[5-(2-ethoxy-3-pyridyl)-1-isopropyl-3-methyl-pyrazolo[4,3-b]pyridin-7-yl]methyl]-5-methoxy-pyridin-3-amine]: the IC50 on PDE1B (read-out: PDE1B, IC50) is 14 nM; against PDE1C (setting [1]) it was 77 nM; at PDE1A (setting [1]) it was 34 nM.

Turning to `CCOc1ncccc1-c1cc(CNc2ncn(C)n2)c2c(n1)c(C)nn2C(C)C` [Example 158, N-[[5-(2-ethoxy-3-pyridyl)-1-isopropyl-3-methyl-pyrazolo[4,3-b]pyridin-7-yl]methyl]-1-methyl-1,2,4-triazol-3-amine], the IC50 amounted to 4.9 nM at PDE1B (read-out: PDE1B, IC50); 50 nM at PDE1C (setting [1]); 23 nM against PDE1A (setting [1]).

For the molecule `CCOc1ncccc1-c1cc(CCc2cncc(OC)c2)c2c(n1)c(C)nn2C(C)C` [Example 159, 5-(2-ethoxy-3-pyridyl)-1-isopropyl-7-[2-(5-methoxy-3-pyridyl)ethyl]-3-methyl-pyrazolo[4,3-b]pyridine], the IC50 on PDE1B (read-out: PDE1B, IC50) came to 70 nM; against PDE1C (setting [1]), 1600 nM; at PDE1A (setting [1]), 270 nM.

As to `CCOc1ncccc1-c1cc(CCc2ncn(C)n2)c2c(n1)c(C)nn2C(C)C` [Example 160, 5-(2-ethoxy-3-pyridyl)-1-isopropyl-3-methyl-7-[2-(1-methyl-1,2,4-triazol-3-yl)ethyl]pyrazolo[4,3-b]pyridine], the IC50 at PDE1B (read-out: PDE1B, IC50) came out at 3.9 nM; against PDE1C (setting [1]) it was 56 nM; against PDE1A (setting [1]) it was 23 nM.

Consider `CCOc1ncccc1-c1cc(NCc2ncn(C)n2)c2c(n1)c(C)nn2C1COC1` [Example 163, 5-(2-ethoxy-3-pyridyl)-3-methyl-N-[(1-methyl-1,2,4-triazol-3-yl)methyl]-1-(oxetan-3-yl)pyrazolo[4,3-b]pyridin-7-amine], for which the IC50 is 14 nM on PDE1B (read-out: PDE1B, IC50); 120 nM against PDE1C (setting [1]); 120 nM at PDE1A (setting [1]).

Regarding `CCOc1ncccc1-c1cc(SCc2cnn(C)c2)c2c(n1)c(C)nn2C(C)C` [Example 164, 5-(2-ethoxy-3-pyridyl)-1-isopropyl-3-methyl-7-[(1-methylpyrazol-4-yl)methylsulfanyl]pyrazolo[4,3-b]pyridine], the IC50 on PDE1B (PDE1B, IC50 (nM)) turned out to be 1.6 nM; against PDE1C (setting [1]), 25 nM; against PDE1A, 6.8 nM.

On to `CCOc1ncccc1-c1cc(NCc2cc(CF)no2)c2c(n1)c(C)nn2C(C)C` [Example 167, 5-(2-ethoxy-3-pyridyl)-N-[[3-(fluoromethyl)isoxazol-5-yl]methyl]-1-isopropyl-3-methyl-pyrazolo[4,3-b]pyridin-7-amine], for which the IC50 turned out to be 1 nM on PDE1B (read-out: PDE1B, IC50); 33 nM at PDE1C (setting [1]); 11 nM on PDE1A (setting [1]).

As to `Cc1nn(C(C)C)c2c(NCc3cnn(C)c3)cc(-c3ncco3)nc12` [Example 168, 1-isopropyl-3-methyl-N-[(1-methylpyrazol-4-yl)methyl]-5-oxazol-2-yl-pyrazolo[4,3-b]pyridin-7-amine], the IC50 at PDE1B (read-out: PDE1B, IC50) turned out to be 2.6 nM; at PDE1C (setting [1]), 36 nM; on PDE1A (setting [1]) it was 14 nM.

Regarding `Cc1nn(C(C)C)c2c(NCc3cnn(C)c3)cc(-c3cnnn3C)nc12` [Example 169, 1-isopropyl-3-methyl-N-[(1-methylpyrazol-4-yl)methyl]-5-(3-methyltriazol-4-yl)pyrazolo[4,3-b]pyridin-7-amine], the IC50 on PDE1B (read-out: PDE1B, IC50) is 85 nM; against PDE1C (setting [1]) it was 170 nM; against PDE1A (setting [1]), 610 nM.

As for `COc1ncccc1-c1cc(NCc2cccnc2C(F)(F)F)c2c(n1)c(C)nn2C(C)C` [Example 170, 1-isopropyl-5-(2-methoxy-3-pyridyl)-3-methyl-N-[[2-(trifluoromethyl)-3-pyridyl]methyl]pyrazolo[4,3-b]pyridin-7-amine], the IC50 was found to be 5.3 nM on PDE1B (read-out: PDE1B, IC50); 46 nM against PDE1C (setting [1]); 42 nM against PDE1A (setting [1]).

On to `COc1ncccc1CNc1cc(-c2ccc[nH]c2=O)nc2c(C)nn(C(C)C)c12` [Example 171, 3-[1-isopropyl-7-[(2-methoxy-3-pyridyl)methylamino]-3-methyl-pyrazolo[4,3-b]pyridin-5-yl]-1H-pyridin-2-one], for which the IC50 at PDE1B (read-out: PDE1B, IC50) was found to be 47 nM; against PDE1C (setting [1]), 420 nM; at PDE1A (setting [1]), 290 nM.

`COc1ncccc1-c1cc(NCc2cnc(C)s2)c2c(n1)c(C)nn2C(C)C` [Example 173, 1-isopropyl-5-(2-methoxy-3-pyridyl)-3-methyl-N-[(2-methylthiazol-5-yl)methyl]pyrazolo[4,3-b]pyridin-7-amine]: the IC50 at PDE1B (read-out: PDE1B, IC50) was determined as 6.3 nM; against PDE1C (setting [1]) it was 26 nM; against PDE1A (setting [1]), 49 nM.

As for `COc1ncccc1CNc1cc(-c2cccnc2OC2CC2)nc2c(C)nn(C(C)C)c12` [Example 174, 5-(2-cyclopropoxypyridin-3-yl)-1-isopropyl-N-((2-methoxypyridin-3-yl)methyl)-3-methyl-1H-pyrazolo[4,3-b]pyridin-7-amine], the IC50 is 1.5 nM on PDE1B (read-out: PDE1B, IC50); 52 nM against PDE1C (setting [1]); 18 nM against PDE1A (setting [1]).

As for `COc1ncccc1CNc1cc(-c2ccnn2C)nc2c(C)nn(C(C)C)c12` [Example 175, 1-isopropyl-N-((2-methoxypyridin-3-yl)methyl)-3-methyl-5-(1-methyl-1H-pyrazol-5-yl)-1H-pyrazolo[4,3-b]pyridin-7-amine], the 50% inhibitory concentration (IC50) on PDE1B (read-out: PDE1B, IC50) worked out at 17 nM; against PDE1C (setting [1]), 130 nM; against PDE1A (setting [1]) it was 83 nM.

Take `CCOc1ncccc1-c1cc(NCc2ncc(OC)cn2)c2c(n1)c(C)nn2C(C)C` [Example 176, 5-(2-ethoxy-3-pyridyl)-1-isopropyl-N-[(5-methoxypyrimidin-2-yl)methyl]-3-methyl-pyrazolo[4,3-b]pyridin-7-amine]: the IC50 at PDE1B (read-out: PDE1B, IC50) is 12 nM; against PDE1C (setting [1]) it was 93 nM; against PDE1A (setting [1]), 81 nM.

Consider `Cc1nn(C(C)C)c2c(NCc3cnn(C)c3)cc(-c3ccc[nH]c3=O)nc12` [Example 177, 3-[1-isopropyl-3-methyl-7-[(1-methylpyrazol-4-yl)methylamino]pyrazolo[4,3-b]pyridin-5-yl]-1H-pyridin-2-one], for which the IC50 on PDE1B (read-out: PDE1B, IC50) stood at 20 nM; against PDE1C (setting [1]) it was 180 nM; on PDE1A (setting [1]) it was 130 nM.

Regarding `CCOc1ncccc1-c1cc(NCc2cccnc2C(F)F)c2c(n1)c(C)nn2C(C)C` [Example 178, N-[[2-(difluoromethyl)-3-pyridyl]methyl]-5-(2-ethoxy-3-pyridyl)-1-isopropyl-3-methyl-pyrazolo[4,3-b]pyridin-7-amine], the IC50 on PDE1B (read-out: PDE1B, IC50) was determined as 3.2 nM; at PDE1C (setting [1]), 63 nM; against PDE1A (setting [1]), 31 nM.

In the case of `CCOc1ncccc1-c1cc(NCc2cc(OC)ncn2)c2c(n1)c(C)nn2C(C)C` [Example 179, 5-(2-ethoxy-3-pyridyl)-1-isopropyl-N-[(6-methoxypyrimidin-4-yl)methyl]-3-methyl-pyrazolo[4,3-b]pyridin-7-amine], the IC50 was found to be 0.51 nM at PDE1B (read-out: PDE1B, IC50); 7 nM against PDE1C (setting [1]); 2.8 nM against PDE1A (setting [1]).

As to `[2H]C([2H])(C)Oc1ncccc1-c1cc(NCc2cccnc2OC)c2c(n1)c(C)nn2C(C)C` [Example 180, 5-(2-(ethoxy-1,1-d2)pyridin-3-yl)-1-isopropyl-N-((2-methoxypyridin-3-yl)methyl)-3-methyl-1H-pyrazolo[4,3-b]pyridin-7-amine], the IC50 is 0.77 nM at PDE1B (PDE1B, IC50 (nM)); 78 nM on PDE1C; 27 nM against PDE1A.

For the molecule `[2H]C([2H])([2H])C([2H])([2H])Oc1ncccc1-c1cc(NCc2cccnc2OC)c2c(n1)c(C)nn2C(C)C` [Example 181, 5-(2-(ethoxy-d5)pyridin-3-yl)-1-isopropyl-N-((2-methoxypyridin-3-yl)methyl)-3-methyl-1H-pyrazolo[4,3-b]pyridin-7-amine], the IC50 at PDE1B (PDE1B, IC50 (nM)) worked out at 1.6 nM; against PDE1C, 84 nM; against PDE1A it was 31 nM.

For `[2H]C([2H])([2H])COc1ncccc1-c1cc(NCc2cccnc2OC)c2c(n1)c(C)nn2C(C)C` [Example 182, 5-(2-(ethoxy-2,2,2-d3)pyridin-3-yl)-1-isopropyl-N-((2-methoxypyridin-3-yl)methyl)-3-methyl-1H-pyrazolo[4,3-b]pyridin-7-amine], the IC50 was found to be 1.1 nM at PDE1B (PDE1B, IC50 (nM)); 61 nM on PDE1C; 24 nM at PDE1A.
